Measurements as given in patent publication US4465676A, “16α Halogen substituted 3,17β-dihydroxy steroidal estrogens” (priority 1980, dated 1984).
pKd: −log10 of the molar value.

Legend:
[1] = molecular target: T1, rat uterine cytosol (estrogen receptor) (Rattus norvegicus, UniProt P06211); assay: Binding to rat uterine cytosol, dextran-coated charcoal
T1 construct: incubated with cytoplasm from the uteri of rats; from tissue; host or cells: uterine cytosol of ovariectomized rats
T1 sequence (P06211 1-600): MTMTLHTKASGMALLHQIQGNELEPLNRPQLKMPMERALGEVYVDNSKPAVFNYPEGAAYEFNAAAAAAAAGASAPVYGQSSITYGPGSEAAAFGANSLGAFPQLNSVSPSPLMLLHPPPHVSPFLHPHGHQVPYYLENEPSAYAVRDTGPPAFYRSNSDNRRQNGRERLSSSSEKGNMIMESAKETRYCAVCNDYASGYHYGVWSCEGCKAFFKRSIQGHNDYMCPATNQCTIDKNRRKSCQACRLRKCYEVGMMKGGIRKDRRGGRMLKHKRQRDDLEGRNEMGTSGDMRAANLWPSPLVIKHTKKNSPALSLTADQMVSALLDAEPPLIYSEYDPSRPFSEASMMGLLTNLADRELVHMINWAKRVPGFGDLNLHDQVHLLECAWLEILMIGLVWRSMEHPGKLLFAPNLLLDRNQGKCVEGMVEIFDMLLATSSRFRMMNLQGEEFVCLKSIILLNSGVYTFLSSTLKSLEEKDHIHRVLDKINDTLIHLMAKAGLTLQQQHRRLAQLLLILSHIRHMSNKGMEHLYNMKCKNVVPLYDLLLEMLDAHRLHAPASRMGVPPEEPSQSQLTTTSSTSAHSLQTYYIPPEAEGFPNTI
Procedure: Metab. […] The homogenate was centrifuged at 4000 g for 10 minutes and the resulting supernatant for 60 minutes at 150,000 g. […] Samples were incubated for 4 hours at 0° to 2° C. Free steroid was removed by addition of 250 μl of a suspension of 0.5 percent dextran-coated charcoal. The tubes were mixed and then centrifuged at […] for 10 minutes.

[2] = Tissue radioactivity 6 hours after injection into castrated female rats with and without DES; format: in vivo, Sprague-Dawley rats
Procedure: (§1) To deterine whether 16α-[^125 I]iodoestradiol would be recognized by estrogen-responsive tissues, it was injected into castrated female rats with and without diethylstilbestrol (DES); after 6 hours the concentration of radioactivity in the uterus was compared to that in several other tissues.
(§2) Female Sprague-Dawley rats (200 to 250 g) were castrated 48 hours before subcutaneous injection of ^125 I-labeled estradiol (1×10^6 count/min) dissolved in 10 μl of ethanol and 0.2 ml of saline. Twenty minutes before the administration of the iodinated estradiol, one group of rats (N=6) were injected with 5 μg of DES dissolved first in 50 μl of ethanol and then in 0.5 ml of saline. Another group of castrated rats (N=6) were injected with 0.5 ml of 10 percent ethanol in saline before receiving the radioactive steroid. The rats were killed 6 hours later and small pieces of the tissues were weighed and counted. All values are means ± standard deviations. To determine ether extractable radioactivity, the uterus, liver, and thyroid were homogenized in methanol and filtered. The filtrate was evaporated and the resulting residue was partitioned between ether and 0.1N NaHCO3. The ethereal solution was evaporated and counted and the results are tabulated below in Table I.
(§3) Several micrograms of 16α-iodoestradiol were added to the ether extract of the uterus and the mixture was submitted to high-pressure liquid chromatography. High pressure liquid chromatography was performed on a 250 by 4.6 mm Lichrosorb Diol column (merck) with methylene chloride at a flow rate of 1 ml/min. In this system 16α-iodoestradiol is eluted in 12 minutes and 16β-bromoestradiol in 8 minutes. […] The radioactivity in the thyroid gland, approximately 2000 count/min, is probably due to the uptake of free iodide arising from the metabolism of ^125 I-labeled estradiol in vivo and is equivalent to only 0.2 percent of the injected dose.

[3] = tested on: Rat Uterine Receptor; assay: as above; format: in vivo, Sprague-Dawley rats
Procedure: as §1, §2, §3

[4] = molecular target: T2, estrogen receptor of human mammary tumors (Homo sapiens, UniProt P03372); assay: Estrogen receptor assay in human mammary tumor cytosol; format: binding; conditions: 1.5 mg/ml protein
T2 construct: 124 and 126
T2 sequence (P03372 1-595): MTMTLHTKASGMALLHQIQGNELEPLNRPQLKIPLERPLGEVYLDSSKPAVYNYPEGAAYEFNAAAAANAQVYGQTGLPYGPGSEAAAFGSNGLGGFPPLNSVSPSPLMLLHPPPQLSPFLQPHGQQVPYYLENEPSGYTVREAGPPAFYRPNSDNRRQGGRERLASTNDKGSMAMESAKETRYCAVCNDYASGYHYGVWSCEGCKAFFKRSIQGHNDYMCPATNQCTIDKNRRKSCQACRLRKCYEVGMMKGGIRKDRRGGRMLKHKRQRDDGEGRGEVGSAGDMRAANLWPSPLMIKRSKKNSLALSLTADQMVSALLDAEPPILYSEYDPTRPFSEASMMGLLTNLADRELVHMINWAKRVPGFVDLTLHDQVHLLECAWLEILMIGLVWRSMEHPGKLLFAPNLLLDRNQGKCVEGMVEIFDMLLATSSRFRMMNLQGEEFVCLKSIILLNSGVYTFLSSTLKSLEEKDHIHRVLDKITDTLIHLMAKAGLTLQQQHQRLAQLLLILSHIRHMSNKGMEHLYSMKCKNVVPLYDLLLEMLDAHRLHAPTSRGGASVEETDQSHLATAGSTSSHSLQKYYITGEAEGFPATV
Procedure: Extrogen receptor human mammary tumors were kept frozen in dry ice in a pulverized form. […] The final concentration of cytosolic protein used in the assay was 1.5 mg/ml.
A pool of two different estrogen receptor-positive mammary tumors was studied.

[5] = molecular target: T3, estrogen receptors (rat uterine cytosol) (Rattus norvegicus, UniProt P06211); assay: Kinetic experiments and Scatchard analyses in rat uterine cytosol
T3 sequence (P06211 1-600): T1 sequence (P06211 1-600)

C[C@]12CC[C@@H]3c4ccc(O)cc4CC[C@H]3[C@@H]1C[C@@H]([125I])[C@@H]2O [^125 I-E2, 16α-[^125 I]iodoestra-1,3,5(10)-triene-3,17β-diol]
Radioactivity specifically bound, percent of added [1]: 56% | Radioactivity Bound without DES ([1]; 98 μg cytosol protein, 4 hours at 0° to 2° C., added 69,600 (125I) or 63,600 (3H) count/min): 42,600 count/min | Radioactivity specifically bound ([1]; bound without DES minus bound with DES): 38,800 count/min | Radioactivity Bound with DES ([1]; with 7×10^-7 M DES (nonspecific binding)): 3,800 count/min | Ether-extractable radioactivity ([2]; Liver): 10-15% | Ether-extractable radioactivity ([2]; Thyroid): 0-1% | Ether-extractable radioactivity ([2]; Uterus): > 90% | nature of the radioactive material in the uterus ([3]; HPLC of ether extract of uterus with 16α-iodoestradiol carrier): unmetabolized | Radioactivity, With DES ([3]; Heart, 5 μg DES, 6 hours): 26 ± 7 count/min per 100 mg of tissue | Radioactivity, Without DES ([3]; Heart, 6 hours): 23 ± 5 count/min per 100 mg of tissue | Radioactivity, With DES ([3]; Kidney, 5 μg DES, 6 hours): 75 ± 20 count/min per 100 mg of tissue | Radioactivity, Without DES ([3]; Kidney, 6 hours): 73 ± 33 count/min per 100 mg of tissue | Radioactivity, With DES ([3]; Liver, 5 μg DES, 6 hours): 425 ± 105 count/min per 100 mg of tissue | Radioactivity, Without DES ([3]; Liver, 6 hours): 446 ± 184 count/min per 100 mg of tissue | Radioactivity, With DES ([3]; Lung, 5 μg DES, 6 hours): 56 ± 11 count/min per 100 mg of tissue | Radioactivity, Without DES ([3]; Lung, 6 hours): 47 ± 23 count/min per 100 mg of tissue | Radioactivity, With DES ([3]; Muscle, 5 μg DES, 6 hours): 18 ± 12 count/min per 100 mg of tissue | Radioactivity, Without DES ([3]; Muscle, 6 hours): 33 ± 23 count/min per 100 mg of tissue | Radioactivity, With DES ([3]; Serum, 5 μg DES, 6 hours): 68 ± 6 count/min per 100 mg of tissue | Radioactivity, Without DES ([3]; Serum, 6 hours): 69 ± 11 count/min per 100 mg of tissue | Radioactivity, With DES ([3]; Thyroid, entire organ, 5 μg DES, 6 hours): 2287 ± 805 count/min | Radioactivity, Without DES ([3]; Thyroid, entire organ, 6 hours): 1839 ± 802 count/min | Radioactivity, With DES ([3]; Uterus, 5 μg DES 20 min before, 6 hours): 73 ± 8 count/min per 100 mg of tissue | Radioactivity, Without DES ([3]; Uterus, castrated rats, 6 hours after s.c. injection): 313 ± 150 count/min per 100 mg of tissue | radioactivity in the thyroid gland as share of injected dose ([3]; thyroid gland): 0.2% of the injected dose | radioactivity in the thyroid gland ([3]; thyroid gland, probably free iodide): approximately 2000 count/min | receptor concentration found with the ligand ([4]; mammary tumor pool no. 124): 24 fmol/mg of protein | receptor concentration found with the ligand ([4]; mammary tumor pool no. 126): 72 fmol/mg | pKd [5]: 9.57
